Experimental data reported in patent US20050101595A1, “N-containing cycloalkyl-substituted amino-thiazole derivatives and pharmaceutical compositions for inhibiting cell proliferation and methods for their use” (PFIZER INC., priority 2003, published 2005).

Key:
CDK2/Cyclin A = CDK2/Cyclin A (Homo sapiens, UniProt P24941); assay: Inhibition of CDK2/Cyclin A Retinoblastoma Kinase Activity; format: biochemical; conditions: for inhibition at 0.05 µM: read-out: % inhibition of CDK2 (@ 0.05 μM), compound at 0.05 μM
Description: Cyclin-dependent kinase activity was measured by quantifying the enzyme-catalyzed, time-dependent incorporation of radioactive phosphate from [^32P]ATP or [^33P]ATP into a protein substrate. Unless noted otherwise, assays were performed in 96-well plates in a total volume of 50 μL, in the presence of 10 mM HEPES (N-[2-hydroxyethyl]piperazine-N′-[2-ethanesulfonic acid]) (pH 7.4), 10 mM MgCl2, 25 μM adenosine triphosphate (ATP), 1 mg/mL ovalbumin, 5 μg/mL leupeptin, 1 mM dithiothreitol, 10 mM β-glycerophosphate, 0.1 mM sodium vanadate, 1 mM sodium fluoride, 2.5 mM ethylene glycol-bis(β-aminoethyl ether)-N,N,N′N′-tetraacetic acid (EGTA), 2% (v/v) dimethylsulfoxide, and 0.03-0.4 μCi [^32/33P]ATP per reaction. Reactions were initiated with enzyme, incubated at 30° C., and terminated after 20 minutes by the addition of ethylenediaminetetraacetic acid (EDTA) to 250 mM. The phosphorylated substrate was then captured on a nitrocellulose or phosphocellulose membrane using a 96-well filtration manifold, and unincorporated radioactivity was removed by repeated washing with 0.85% phosphoric acid. Radioactivity was quantified by exposing the dried membranes to a phosphorimager.
Inhibition was measured relative to control wells that contained all reaction components including 2% (v/v) DMSO but no compound, after subtraction of background radioactivity measured in the absence of enzyme. Apparent Ki values of discrete compounds were measured by assaying enzyme activity in the presence of different inhibitor compound concentrations and subtracting the background radioactivity measured in the absence of enzyme. The kinetic parameters (kcat, Km for ATP) were measured for each enzyme under the usual assay conditions by determining the dependence of initial rates on ATP concentration. Inhibition data were fit to an equation for competitive inhibition using Kaleidagraph (Synergy Software), or were fit to an equation for competitive tight-binding inhibition using the software KineTic (BioKin, Ltd.).
Inhibition of CDK2/Cyclin A Retinoblastoma Kinase Activity:
CDK2 was purified using published methodology (Rosenblatt et al., “Purification and Crystallization of Human Cyclin-dependent Kinase 2,” J. Mol. Biol., vol. 230, 1993, pp. 1317-1319) from insect cells that had been infected with a baculovirus expression vector. […] A complex of CDK2 and proteolyzed cyclin A was prepared and purified by gel filtration. The substrate for this assay was the same Rb substrate fragment used for the CDK4 assays, and the methodology of the CDK2/delta cyclin A and the CDK4/delta cyclin D3 assays was essentially the same, except that CDK2 was present at 10 nM or 19 nM. The duration of the assay was 60 or 75 minutes, during which the time-dependence of product formation was linear and initial rate conditions were met. And, the percent inhibitions of the compounds of Example O through Example R were calculated as described above and shown in Table 2.

HCT-116 cell line = assay: Inhibition of cell growth, tetrazolium salt (MTT) assay; format: cell-based; conditions: MTT, compound at 0.175 uM; for inhibition at 0.175 µM: Homo sapiens, HCT-116, HCT-116 cells
Procedure, shortened: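 First, cells were seeded in McCoy's 5A medium and held 4 h. Next, inhibitor concentrations in 0.5% (v/v) DMSO were applied for three to five days at 37° C, 5% CO2. Finally, after 4 h with 0.2 mg/mL MTT and medium removal, solubilized formazan was measured at 540 nm.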

| Compound | inhibition at 0.05 µM (CDK2/Cyclin A) | % inhibition of CDK2 (@ 0.05 μM) (CDK2/Cyclin A; compound at 0.05 μM, 0.05 µM) | inhibition at 0.175 µM (HCT-116 cell line) | % inhibition HCT-116 in MTT @ 0.175 uM (HCT-116 cell line; HCT-116 cells, 0.175 µM) |
| --- | --- | --- | --- | --- |
| Nc1nc(NC2CCN(S(=O)(=O)CCCNCCN3CCCC3)CC2)sc1C(=O)c1c(F)cccc1F [Example V9] | 78% | – | 13% | – |
| Nc1nc(NC2CCN(S(=O)(=O)CCCNCCN3CCOCC3)CC2)sc1C(=O)c1c(F)cccc1F [Example V10] | 69% | – | 3% | – |
| Nc1nc(NC2CCN(S(=O)(=O)CCCNCCOCCO)CC2)sc1C(=O)c1c(F)cccc1F [Example V11] | 74% | – | 11% | – |
| CN(CCCS(=O)(=O)N1CCC(Nc2nc(N)c(C(=O)c3c(F)cccc3F)s2)CC1)Cc1ccccc1 [Example V13] | 90% | – | 79% | – |
| CCN(CC)CCCNCCCS(=O)(=O)N1CCC(Nc2nc(N)c(C(=O)c3c(F)cccc3F)s2)CC1 [Example V14] | 75% | – | 18% | – |
| NC(=O)C1CCCN(CCCS(=O)(=O)N2CCC(Nc3nc(N)c(C(=O)c4c(F)cccc4F)s3)CC2)C1 (stereo not shown) [Example V16] | 80% | – | 5% | – |
| Nc1nc(NC2CCN(S(=O)(=O)CCCNC3CCOC3=O)CC2)sc1C(=O)c1c(F)cccc1F (stereo not shown) [Example V18] | 22% | – | 0% | – |
| Nc1nc(NC2CCN(S(=O)(=O)CCCN[C@@H]3CONC3=O)CC2)sc1C(=O)c1c(F)cccc1F [Example V21] | 86% | – | 10% | – |
| CN(C)C1CCN(CCCS(=O)(=O)N2CCC(Nc3nc(N)c(C(=O)c4c(F)cccc4F)s3)CC2)CC1 [Example V22] | 67% | – | 13% | – |
| Nc1nc(NC2CCN(S(=O)(=O)CCCN3CCC(O)CC3)CC2)sc1C(=O)c1c(F)cccc1F [Example V25] | 73% | – | 16% | – |
| CC(=O)N1CCN(CCCS(=O)(=O)N2CCC(Nc3nc(N)c(C(=O)c4c(F)cccc4F)s3)CC2)CC1 [Example V29] | 81% | – | 0% | – |
| CN1CCCN(CCCS(=O)(=O)N2CCC(Nc3nc(N)c(C(=O)c4c(F)cccc4F)s3)CC2)CC1 [Example V30] | 78% | – | 8% | – |
| CC1CN(CCCS(=O)(=O)N2CCC(Nc3nc(N)c(C(=O)c4c(F)cccc4F)s3)CC2)CC(C)O1 (stereo not shown) [Example V31] | 83% | – | 48% | – |
| CN(C)CCCN(C)CCCS(=O)(=O)N1CCC(Nc2nc(N)c(C(=O)c3c(F)cccc3F)s2)CC1 [Example V32] | 78% | – | 11% | – |
| CCN(CC)CCN(C)CCCS(=O)(=O)N1CCC(Nc2nc(N)c(C(=O)c3c(F)cccc3F)s2)CC1 [Example V33] | 76% | – | 16% | – |
| Nc1nc(NC2CCN(S(=O)(=O)CCCN3CCN(CCO)CC3)CC2)sc1C(=O)c1c(F)cccc1F [Example V34] | 67% | – | 16% | – |
| CN1CCN(CCCS(=O)(=O)N2CCC(Nc3nc(N)c(C(=O)c4c(F)cccc4F)s3)CC2)CC1 [Example V35] | 72% | – | 17% | – |
| Nc1nc(NC2CCN(S(=O)(=O)CCCN3CCCC(CO)C3)CC2)sc1C(=O)c1c(F)cccc1F (stereo not shown) [Example V36] | 50% | – | 8% | – |
| Nc1nc(NC2CCN(S(=O)(=O)CCCN3CCCCCC3)CC2)sc1C(=O)c1c(F)cccc1F [Example V37] | – | 85% | – | 65% |
| Nc1nc(NC2CCN(S(=O)(=O)CCCN3CCCCC3CCO)CC2)sc1C(=O)c1c(F)cccc1F (stereo not shown) [Example V38] | 80% | – | 1% | – |
| Nc1nc(NC2CCN(S(=O)(=O)CCCN[C@H]3CC[C@H](O)CC3)CC2)sc1C(=O)c1c(F)cccc1F [Example V39] | 84% | – | 0% | – |
| CC(=O)NC1CCN(CCCS(=O)(=O)N2CCC(Nc3nc(N)c(C(=O)c4c(F)cccc4F)s3)CC2)C1 (stereo not shown) [Example V41] | 71% | – | 14% | – |
| NC(=O)C1CCN(CCCS(=O)(=O)N2CCC(Nc3nc(N)c(C(=O)c4c(F)cccc4F)s3)CC2)CC1 [Example V45] | 83% | – | 25% | – |
| CC1(C)CCCN(CCCS(=O)(=O)N2CCC(Nc3nc(N)c(C(=O)c4c(F)cccc4F)s3)CC2)C1 [Example V46] | 77% | – | 71% | – |
| Nc1nc(NC2CCN(S(=O)(=O)CCCNCCC3=CCCCC3)CC2)sc1C(=O)c1c(F)cccc1F [Example V49] | 91% | – | 38% | – |
| CCN(CCO)CCCS(=O)(=O)N1CCC(Nc2nc(N)c(C(=O)c3c(F)cccc3F)s2)CC1 [Example V51] | 79% | – | 0% | – |

The next lines start with results.

| inhibition at 0.05 µM (CDK2/Cyclin A) | % inhibition of CDK2 (@ 0.05 μM) (CDK2/Cyclin A; compound at 0.05 μM, 0.05 µM) | Compound | inhibition at 0.175 µM (HCT-116 cell line) | % inhibition HCT-116 in MTT @ 0.175 uM (HCT-116 cell line; HCT-116 cells, 0.175 µM) |
| --- | --- | --- | --- | --- |
| 93% | – | Nc1nc(NC2CCN(S(=O)(=O)CCCNCc3ccccc3)CC2)sc1C(=O)c1c(F)cccc1F [Example V12] | 69% | – |
| 62% | – | CN(C)CCCNCCCS(=O)(=O)N1CCC(Nc2nc(N)c(C(=O)c3c(F)cccc3F)s2)CC1 [Example V15] | 11% | – |
| 78% | – | NC(=O)CNCCCS(=O)(=O)N1CCC(Nc2nc(N)c(C(=O)c3c(F)cccc3F)s2)CC1 [Example V17] | 0% | – |
| 59% | – | CC(=O)NCCNCCCS(=O)(=O)N1CCC(Nc2nc(N)c(C(=O)c3c(F)cccc3F)s2)CC1 [Example V19] | 13% | – |
| 81% | – | Nc1nc(NC2CCN(S(=O)(=O)CCCNCC3CCCO3)CC2)sc1C(=O)c1c(F)cccc1F (stereo not shown) [Example V20] | 9% | – |
| 87% | – | Nc1nc(NC2CCN(S(=O)(=O)CCCNCc3ccncc3)CC2)sc1C(=O)c1c(F)cccc1F [Example V23] | 24% | – |
| 89% | – | Nc1nc(NC2CCN(S(=O)(=O)CCCNCc3ccco3)CC2)sc1C(=O)c1c(F)cccc1F [Example V24] | 48% | – |
| 92% | – | Nc1nc(NC2CCN(S(=O)(=O)CCCNCc3ccccc3F)CC2)sc1C(=O)c1c(F)cccc1F [Example V26] | 76% | – |
| 93% | – | Cc1ccccc1CNCCCS(=O)(=O)N1CCC(Nc2nc(N)c(C(=O)c3c(F)cccc3F)s2)CC1 [Example V27] | 86% | – |
| 91% | – | Nc1nc(NC2CCN(S(=O)(=O)CCCNCc3cccs3)CC2)sc1C(=O)c1c(F)cccc1F [Example V28] | 33% | – |
| 80% | – | COCCCNCCCS(=O)(=O)N1CCC(Nc2nc(N)c(C(=O)c3c(F)cccc3F)s2)CC1 [Example V40] | 0% | – |
| 79% | – | CC(O)CNCCCS(=O)(=O)N1CCC(Nc2nc(N)c(C(=O)c3c(F)cccc3F)s2)CC1 (stereo not shown) [Example V42] | 4% | – |
| 81% | – | Cc1cnc(CNCCCS(=O)(=O)N2CCC(Nc3nc(N)c(C(=O)c4c(F)cccc4F)s3)CC2)cn1 [Example V43] | 17% | – |
| 80% | – | Cc1cc(NCCCS(=O)(=O)N2CCC(Nc3nc(N)c(C(=O)c4c(F)cccc4F)s3)CC2)no1 [Example V44] | 17% | – |
| 85% | – | Nc1ccc(CNCCCS(=O)(=O)N2CCC(Nc3nc(N)c(C(=O)c4c(F)cccc4F)s3)CC2)cc1 [Example V47] | 13% | – |
| 79% | – | Nc1nc(NC2CCN(S(=O)(=O)CCCNCC(O)CO)CC2)sc1C(=O)c1c(F)cccc1F (stereo not shown) [Example V48] | 7% | – |
| 81% | – | COC(=O)CNCCCS(=O)(=O)N1CCC(Nc2nc(N)c(C(=O)c3c(F)cccc3F)s2)CC1 [Example V50] | 0% | – |
| 92% | – | Nc1nc(NC2CCN(S(=O)(=O)CCCNCc3ccc(F)cc3)CC2)sc1C(=O)c1c(F)cccc1F [Example V52] | 65% | – |
